From patent publication US20090270350A1, “Pyridinone Pyrazole Urea and Pyrimidinone Pyrazole Urea Derivatives” (PFIZER INC., priority 2006, published 2009)

Each compound was assayed against p38α (Homo sapiens, UniProt Q16539) (assay: p38α/MK2 cascade assay). Conditions: Table 1; inhibitors preincubated with p38α for 40 minutes; phosphorylation of Hsp27 peptide by MK-2, Caliper LabChip 3000; read-out: p38a/MK2 Cascade 40 min Pre-Incuabtion (% Inhibition): IC50.
p38α, sequence (Q16539 whole entry): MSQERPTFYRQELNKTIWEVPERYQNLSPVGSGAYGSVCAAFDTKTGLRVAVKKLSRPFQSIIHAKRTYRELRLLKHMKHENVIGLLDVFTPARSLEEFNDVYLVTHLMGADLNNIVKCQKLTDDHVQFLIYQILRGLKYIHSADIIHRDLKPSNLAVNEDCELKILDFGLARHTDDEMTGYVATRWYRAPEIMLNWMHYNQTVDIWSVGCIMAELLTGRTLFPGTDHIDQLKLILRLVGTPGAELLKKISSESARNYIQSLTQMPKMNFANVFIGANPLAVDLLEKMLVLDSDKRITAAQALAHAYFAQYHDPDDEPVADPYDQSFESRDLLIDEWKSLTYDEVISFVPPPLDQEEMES
Assay type: biochemical
Method in brief: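 In a cascade format, p38α was preincubated 40 min with inhibitor (1000–0.05 nM) before adding 1 nM nonactive MK2 (54-400), 5 μM MgATP and 0.5 μM FITC-Hsp27 peptide. Reaction ran 60 min in HEPES pH 7.5 with MgCl2, DTT, 2% DMSO, then EDTA-quenched. Peptide phosphorylation was measured by Caliper mobility shift to give IC50.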
COc1ccc(Cn2c(C)cc(OCc3ccccc3CNC(=O)Nc3cc(C(C)(C)C)nn3-c3ccc(Cl)c(O)c3)c(Cl)c2=O)cc1Cl [Example 67, 1-[3-tert-butyl-1-(4-chloro-3-hydroxyphenyl)-1H-pyrazol-5-yl]-3-[2-({[3-chloro-1-(3-chloro-4-methoxybenzyl)-6-methyl-2-oxo-1,2-dihydropyridin-4-yl]oxy}methyl)benzyl]urea] showed an IC50 of 7.9 nM. In the case of COc1cccc(Cn2c(C)cc(OCc3ccc(F)cc3CNC(=O)Nc3cc(C(C)(C)C)nn3-c3ccc(Cl)c(O)c3)c(Cl)c2=O)c1 [Example 45, 1-[3-tert-butyl-(4-chloro-3-hydroxyphenyl)-1H-pyrazol-5-yl]-3-[2-({[3-chloro-1-(3-methoxybenzyl)-6-methyl-2-oxo-1,2-dihydropyridin-4-yl]oxy}methyl)-5-fluorobenzyl]urea], the IC50 is reported as 6.2 nM. COc1ccc(Cn2c(C)cc(OCc3ccccc3CNC(=O)Nc3cc(C(C)(C)C)nn3-c3cccc(F)c3)c(Br)c2=O)cc1 [Example 97, 1-[2-({[3-bromo-1-(4-methoxybenzyl)-6-methyl-2-oxo-1,2-dihydropyridin-4-yl]oxy}methyl)benzyl]-3-[3-tert-butyl-1-(3-fluorophenyl)-1H-pyrazol-5-yl]urea] showed an IC50 of 3.9 nM. For COc1cccc(Cn2c(C)cc(OCc3ccccc3CNC(=O)Nc3cc(C(C)(C)C)nn3-c3cccc(OCCOC4CCCCO4)c3)cc2=O)c1 (centres unmarked) [Example 36, 1-(3-tert-butyl-1-{3-[2-(tetrahydro-2H-pyran-2-yloxy)ethoxy]phenyl}-1H-pyrazol-5-yl)-3-[2-({[1-(3-methoxybenzyl)-6-methyl-2-oxo-1,2-dihydropyridin-4-yl]oxy}methyl)benzyl]urea], the IC50 was 142 nM. In the case of Cc1ccc(-n2nc(C(C)(C)C)cc2NC(=O)NCc2cc(F)ccc2COc2cc(C)n(-c3cc(C(=O)NCCO)ccc3C)c(=O)c2Cl)cc1 [Example 190, 3-{4-[(2-{[({[3-tert-butyl-1-(4-methylphenyl)-1H-pyrazol-5-yl]amino}carbonyl)amino]methyl}-4-fluorobenzyl)oxy]-3-chloro-6-methyl-2-oxopyridin-1(2H)-yl}-N-(2-hydroxyethyl)-4-methylbenzamide], the IC50 is reported as 2.37 nM. Work on COc1cccc(-n2nc(C(C)(C)C)cc2NC(=O)NCc2ccccc2COc2cc(C)n(Cc3ccccc3)c(=O)c2C)c1 [Example 128-B, 1-(2-{[(1-benzyl-3,6-dimethyl-2-oxo-1,2-dihydropyridin-4-yl)oxy]methyl}benzyl)-3-[3-tert-butyl-1-(3-methoxyphenyl)-1H-pyrazol-5-yl]urea] yielded an IC50 of 12.5 nM. Compound CCc1c(OCc2ccccc2CNC(=O)Nc2cc(C(C)(C)C)nn2-c2ccc(C)cc2)ncn(Cc2ccc(OC)cc2)c1=O [Example 114, 1-[3-tert-butyl-1-(4-methylphenyl)-1H-pyrazol-5-yl]-3-[2-({[5-ethyl-1-(4-methoxybenzyl)-6-oxo-1,6-dihydropyrimidin-4-yl]oxy}methyl)benzyl]urea] has an IC50 of 16.3 nM. With CCc1c(OCc2ccccc2CNC(=O)Nc2cc(C(C)(C)C)nn2-c2cccc(F)c2)ncn(Cc2ccc(OC)cc2)c1=O [Example 116, 1-[3-tert-butyl-1-(3-fluorophenyl)-1H-pyrazol-5-yl]-3-[2-({[5-ethyl-1-(4-methoxybenzyl)-6-oxo-1,6-dihydropyrimidin-4-yl]oxy}methyl)benzyl]urea] the IC50 was 10.1 nM.

Same assay, conditions: Table 2; same p38α/MK2 cascade assay; 40 minutes preincubation; read-out: p38a/MK2 Cascade 40 min Pre-Incuabtion (% Inhibition): IC50
CSc1ccccc1Cn1c(C)cc(OCc2ccccc2CNC(=O)Nc2cc(C(C)(C)C)nn2-c2ccc(O)c(Cl)c2)c(Cl)c1=O [Example 270, 1-[3-tert-butyl-1-(3-chloro-4-hydroxyphenyl)-1H-pyrazol-5-yl]-3-{2-[({3-chloro-6-methyl-1-[2-(methylthio)benzyl]-2-oxo-1,2-dihydropyridin-4-yl}oxy)methyl]benzyl}urea] gave an IC50 of 32.7 nM. For COC(=O)c1ccc(C)c(-n2c(C)cc(OCc3ccccc3CNC(=O)Nc3cc(C(C)(C)C)nn3-c3ccc(O)cc3)c(Cl)c2=O)c1 [Example 213, methyl 3-{4-[(2-{[({[3-tert-butyl-1-(4-hydroxyphenyl)-1H-pyrazol-5-yl]amino}carbonyl)amino]methyl}benzyl)oxy]-3-chloro-6-methyl-2-oxopyridin-1(2H)-yl}-4-methylbenzoate], the IC50 was 4 nM. Compound CNC(=O)c1ccc(C)c(-n2c(C)cc(OCc3ccccc3CNC(=O)Nc3cc(C(C)(C)C)nn3-c3ccc(Cl)c(O)c3)c(Cl)c2=O)c1 [Example 226, 3-{4-[(2-{[({[3-tert-butyl-1-(4-chloro-3-hydroxyphenyl)-1H-pyrazol-5-yl]amino}carbonyl)amino]methyl}benzyl)oxy]-3-chloro-6-methyl-2-oxopyridin-1(2H)-yl}-N,4-dimethylbenzamide] has an IC50 of 3.6 nM. Work on COc1ccc(Cn2c(C)cc(OCc3ccccc3CNC(=O)Nc3cc(C(C)(C)C)nn3-c3cccc(OCCO)c3)c(Cl)c2=O)cc1Cl [Example 265, 1-{3-tert-butyl-1-[3-(2-hydroxyethoxy)phenyl]-1H-pyrazol-5-yl}-3-[2-({[3-chloro-1-(3-chloro-4-methoxybenzyl)-6-methyl-2-oxo-1,2-dihydropyridin-4-yl]oxy}methyl)benzyl]urea] yielded an IC50 of 8.4 nM. COC(=O)c1ccc(C)c(-n2c(SC)nc(OCc3ccccc3CNC(=O)Nc3cc(C(C)(C)C)nn3-c3ccc(C)cc3)cc2=O)c1 [Example 204, methyl 3-{4-[(2-{[({[3-tert-butyl-1-(4-methylphenyl)-1H-pyrazol-5-yl]amino}carbonyl)-amino]-methyl}-benzyl)oxy]-2-(methylthio)-6-oxopyrimidin-1(6H)-yl}-4-methylbenzoate] was tested, and the IC50 was 26.3 nM. With COc1ccccc1Cn1c(C)cc(OCc2ccccc2CNC(=O)Nc2cc(C(C)(C)C)nn2-c2ccc(O)cc2)c(C)c1=O [Example 263, 1-[3-tert-butyl-1-(4-hydroxyphenyl)-1H-pyrazol-5-yl]-3-[2-({[1-(2-methoxybenzyl)-3,6-dimethyl-2-oxo-1,2-dihydropyridin-4-yl]oxy}methyl)benzyl]urea] the IC50 was 23.1 nM. For COc1ccccc1Cn1c(C)cc(OCc2ccccc2CNC(=O)Nc2cc(C(C)(C)C)nn2-c2ccc(O)c(Cl)c2)c(Cl)c1=O [Example 248, 1-[3-tert-butyl-1-(3-chloro-4-hydroxyphenyl)-1H-pyrazol-5-yl]-3-[2-({[3-chloro-1-(2-methoxybenzyl)-6-methyl-2-oxo-1,2-dihydropyridin-4-yl]oxy}methyl)benzyl]urea], the IC50 was 15.1 nM. For Cc1ccc(C(=O)NCCO)cc1-n1c(C)cc(OCc2ccccc2CNC(=O)Nc2cc(C(C)(C)C)nn2-c2ccc(Cl)c(O)c2)c(Cl)c1=O [Example 228, 3-{4-[(2-{[({[3-tert-butyl-1-(4-chloro-3-hydroxyphenyl)-1H-pyrazol-5-yl]amino}carbonyl)amino]methyl}benzyl)oxy]-3-chloro-6-methyl-2-oxopyridin-1(2H)-yl}-N-(2-hydroxyethyl)-4-methylbenzamide], the IC50 was 2.1 nM. Work on CSc1ccccc1Cn1c(C)cc(OCc2ccccc2CNC(=O)Nc2cc(C(C)(C)C)nn2-c2ccc(O)cc2)c(Cl)c1=O [Example 268, 1-[3-tert-butyl-1-(4-hydroxyphenyl)-1H-pyrazol-5-yl]-3-{2-[({3-chloro-6-methyl-1-[2-(methylthio)benzyl]-2-oxo-1,2-dihydro-pyridin-4-yl}oxy)methyl]benzyl}urea] yielded an IC50 of 23.6 nM. Work on COc1ccccc1Cn1c(C)cc(OCc2ccccc2CNC(=O)Nc2cc(C(C)(C)C)nn2-c2ccc(O)cc2)c(Cl)c1=O [Example 246, 1-[3-tert-butyl-1-(4-hydroxyphenyl)-1H-pyrazol-5-yl]-3-[2-({[3-chloro-1-(2-methoxybenzyl)-6-methyl-2-oxo-1,2-dihydropyridin-4-yl]oxy}methyl)benzyl]urea] yielded an IC50 of 10 nM. Cc1ccc(C(=O)NCC(O)CO)cc1-n1c(C)cc(OCc2ccccc2CNC(=O)Nc2cc(C(C)(C)C)nn2-c2ccc(Cl)c(O)c2)c(Cl)c1=O (centres unmarked) [Example 234, 3-{4-[(2-{[({[3-tert-butyl-1-(4-chloro-3-hydroxyphenyl)-1H-pyrazol-5-yl]amino}carbonyl)amino]methyl}benzyl)oxy]-3-chloro-6-methyl-2-oxopyridin-1(2H)-yl}-N-(2,3-dihydroxy-propyl)-4-methylbenzamide] was tested, and the IC50 was 1.3 nM. COc1ccc(Cn2c(C)cc(OCc3ccccc3CNC(=O)Nc3cc(C(C)(C)C)nn3-c3ccc(Cl)c(O)c3)c(Cl)c2=O)cc1 [Example 257, 1-[3-tert-butyl-1-(4-chloro-3-hydroxyphenyl)-1H-pyrazol-5-yl]-3-[2-({[3-chloro-1-(4-methoxybenzyl)-6-methyl-2-oxo-1,2-dihydro-pyridin-4-yl]oxy}methyl)benzyl]urea] gave an IC50 of 4.7 nM. With COc1ccc(Cn2c(C)cc(OCc3ccccc3CNC(=O)Nc3cc(C(C)(C)C)nn3-c3ccc(Cl)c(O)c3)c(C)c2=O)cc1C#N [Example 251, 1-[3-tert-butyl-1-(4-chloro-3-hydroxyphenyl)-1H-pyrazol-5-yl]-3-[2-({[1-(3-cyano-4-methoxybenzyl)-3,6-dimethyl-2-oxo-1,2-dihydropyridin-4-yl]oxy}methyl)benzyl]urea] the IC50 was 8.4 nM. Compound COc1ccc(Cn2c(C)cc(OCc3ccccc3CNC(=O)Nc3cc(C(C)(C)C)nn3-c3ccccc3)c(C)c2=O)cc1 [Example 237, 1-(3-tert-butyl-1-phenyl-1H-pyrazol-5-yl)-3-[2-({[1-(4-methoxybenzyl)-3,6-dimethyl-2-oxo-1,2-dihydropyridin-4-yl]oxy}methyl)benzyl]urea] has an IC50 of 11.2 nM. Compound COc1cc(Cn2c(C)cc(OCc3ccccc3CNC(=O)Nc3cc(C(C)(C)C)nn3-c3ccc(Cl)c(O)c3)c(Cl)c2=O)ccc1Cl [Example 256, 1-[3-tert-butyl-1-(4-chloro-3-hydroxyphenyl)-1H-pyrazol-5-yl]-3-[2-({[3-chloro-1-(4-chloro-3-methoxybenzyl)-6-methyl-2-oxo-1,2-dihydropyridin-4-yl]oxy}methyl)benzyl]urea] has an IC50 of 19.9 nM.
